Measurements from PubChem BioAssay AID330 (DTP/NCI, 2004).
Several values for one entry are separate records, joined by “and”; a condition that tells them apart may be missing. Equal values may be shown once. Toxic doses and inconclusive results are not listed. How the source made its calls: active means survival T/C of 150% or more; inactive means T/C below 125% in these data.

Test system: P388 leukemia ip, CD2F1 mice, survival T/C
Assay: NCI In Vivo Anticancer Drug Screen. Data for tumor model P388 Leukemia (intraperitoneal) in CD2F1 (CDF1) mice
Settings: endpoint: median survival time, higher = longer survival
Summary of the method: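 Mice carrying the transplanted tumor received test compound or vehicle. Survival was recorded in each group, and the value is the treated-group measurement divided by that of the vehicle-treated control group.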

[1] = dose: 60.0 mg/kg/injection, schedule: Q01DX005 (ip), vehicle: saline with Tween-80
[2] = dose: 120.0 mg/kg/injection, schedule: Q01DX005 (ip), vehicle: saline with Tween-80
[3] = dose: 240.0 mg/kg/injection, schedule: Q01DX005 (ip), vehicle: saline with Tween-80
[4] = dose: 50.0 mg/kg/injection, schedule: Q01DX009 (ip), vehicle: Klucel (hydroxypropylcellulose) (HPC)
[5] = dose: 100.0 mg/kg/injection, schedule: Q01DX009 (ip), vehicle: Klucel (hydroxypropylcellulose) (HPC)
[6] = dose: 200.0 mg/kg/injection, schedule: Q01DX009 (ip), vehicle: Klucel (hydroxypropylcellulose) (HPC)
[7] = dose: 50.0 mg/kg/injection, schedule: Q01DX009 (ip), vehicle: saline with Tween-80
[8] = dose: 100.0 mg/kg/injection, schedule: Q01DX009 (ip), vehicle: saline with Tween-80
[9] = dose: 200.0 mg/kg/injection, schedule: Q01DX009 (ip), vehicle: saline with Tween-80
[10] = dose: 100.0 mg/kg/injection, schedule: Q04DX002 (ip), vehicle: saline with Tween-80
[11] = dose: 200.0 mg/kg/injection, schedule: Q04DX002 (ip), vehicle: saline with Tween-80
[12] = dose: 60.0 mg/kg/injection, schedule: Q01DX005 (ip), vehicle: saline
[13] = dose: 120.0 mg/kg/injection, schedule: Q01DX005 (ip), vehicle: saline
[14] = dose: 240.0 mg/kg/injection, schedule: Q01DX005 (ip), vehicle: saline
[15] = dose: 50.0 mg/kg/injection, schedule: Q01DX005 (ip), vehicle: saline with Tween-80
[16] = dose: 100.0 mg/kg/injection, schedule: Q01DX005 (ip), vehicle: saline with Tween-80
[17] = dose: 50.0 mg/kg/injection, schedule: Q01DX009 (ip), vehicle: saline
[18] = dose: 50.0 mg/kg/injection, schedule: Q01DX009 (ip), vehicle: suspension in saline
[19] = dose: 100.0 mg/kg/injection, schedule: Q01DX009 (ip), vehicle: suspension in saline

Measured: T/C

Cn1nc(-c2ccccc2)c(-c2cc(-c3ccccc3)n[nH]2)c(N)c1=O
inactive: [1] 87 % of control | [2] 89 % of control | [3] 97 % of control

Cn1ncc2c(Cl)ncnc21
inactive: [4] 91 % of control | [5] 93 % of control | [6] 107 % of control

CC(C(=O)S)C(O)(c1ccccc1)c1ccccc1 (centres undefined)
inactive: dose: 25.0 mg/kg/injection, schedule: Q04DX003 (ip), vehicle: Klucel (hydroxypropylcellulose) (HPC) 98 % of control | dose: 50.0 mg/kg/injection, schedule: Q04DX003 (ip), vehicle: Klucel (hydroxypropylcellulose) (HPC) 101 % of control | dose: 100.0 mg/kg/injection, schedule: Q04DX003 (ip), vehicle: Klucel (hydroxypropylcellulose) (HPC) 107 % of control and 93 % of control

O=S1(=O)CCN(C2CCCC2)CC1
inactive: dose: 25.0 mg/kg/injection, schedule: Q01DX009 (ip), vehicle: Klucel (hydroxypropylcellulose) (HPC) 94 % of control | [4] 93 % of control and 95 % of control | [5] 92 % of control and 95 % of control | [6] 99 % of control and 94 % of control

COc1cc2c(cc1OC)C(CCN)=NCC2
inactive: dose: 25.0 mg/kg/injection, schedule: Q01DX009 (ip), vehicle: saline sonified 95 % of control | dose: 50.0 mg/kg/injection, schedule: Q01DX009 (ip), vehicle: saline sonified 100 % of control | dose: 100.0 mg/kg/injection, schedule: Q01DX009 (ip), vehicle: saline sonified 100 % of control

CC1(C)CCC/C(=C\c2ccccc2)C1(O)c1ccccn1 (centres undefined)
inactive: [7] 97 % of control | [8] 98 % of control | [9] 100 % of control

CCN=C(C)C1=C(O)c2ccccc2C1=O
inactive: [10] 97 % of control | [11] 98 % of control | dose: 400.0 mg/kg/injection, schedule: Q04DX002 (ip), vehicle: saline with Tween-80 98 % of control

O=P(O)(O)CCCNO
inactive: [12] 95 % of control | [13] 91 % of control | [14] 90 % of control

C=C(C)C#CCN(CCO)C(C)C
inactive: [1] 102 % of control | [2] 98 % of control

CC(=O)C(c1ccccc1)S(=O)(=O)c1ccc(C)cc1 (centres undefined)
inactive: dose: 25.0 mg/kg/injection, schedule: Q01DX005 (ip), vehicle: saline with Tween-80 97 % of control | [15] 94 % of control | [16] 87 % of control

OC1COC(c2nn(-c3ccccc3)c3nc4ccccc4nc23)C1O (centres undefined)
inactive: [15] 87 % of control | [16] 87 % of control | dose: 200.0 mg/kg/injection, schedule: Q01DX005 (ip), vehicle: saline with Tween-80 87 % of control

C[N+](C)(C)C1CCC2CCCCC2C1 (centres undefined)
inactive: dose: 12.5 mg/kg/injection, schedule: Q04DX003 (ip), vehicle: saline with Tween-80 103 % of control | dose: 25.0 mg/kg/injection, schedule: Q04DX003 (ip), vehicle: saline with Tween-80 100 % of control and 107 % of control and 98 % of control | dose: 50.0 mg/kg/injection, schedule: Q04DX003 (ip), vehicle: saline with Tween-80 100 % of control and 104 % of control and 124 % of control | dose: 100.0 mg/kg/injection, schedule: Q04DX003 (ip), vehicle: saline with Tween-80 98 % of control

CN(Cc1ccccc1)C(=O)Nc1c(Cl)cccc1Cl
inactive: [1] 103 % of control | [2] 99 % of control | [3] 95 % of control

O=C(O)CSCCCCCSCC(=O)O
inactive: [17] 105 % of control | dose: 100.0 mg/kg/injection, schedule: Q01DX009 (ip), vehicle: saline 106 % of control | dose: 200.0 mg/kg/injection, schedule: Q01DX009 (ip), vehicle: saline 106 % of control

CCc1[nH]c(=O)nc(N)c1-c1ccc(N2CCCCC2)c([N+](=O)[O-])c1
inactive: [1] 93 % of control | [2] 96 % of control | [3] 97 % of control

Oc1ccccc1C=NCCSSCCN=Cc1ccccc1O
inactive: dose: 60.0 mg/kg/injection, schedule: Q01DX005 (ip), vehicle: Klucel (hydroxypropylcellulose) (HPC) 106 % of control | dose: 120.0 mg/kg/injection, schedule: Q01DX005 (ip), vehicle: Klucel (hydroxypropylcellulose) (HPC) 101 % of control | dose: 240.0 mg/kg/injection, schedule: Q01DX005 (ip), vehicle: Klucel (hydroxypropylcellulose) (HPC) 108 % of control

CC(C)c1ccc(C2NC(C(=O)O)CS2)cc1 (centres undefined)
inactive: [18] 93 % of control | [19] 90 % of control

CCOC(=O)C1CCc2c(OC)c(C)cc(C)c2C1=O (centres undefined)
inactive: dose: 50.0 mg/kg/injection, schedule: Q01DX005 (ip), vehicle: Klucel (hydroxypropylcellulose) (HPC) 103 % of control | dose: 100.0 mg/kg/injection, schedule: Q01DX005 (ip), vehicle: Klucel (hydroxypropylcellulose) (HPC) 103 % of control | dose: 200.0 mg/kg/injection, schedule: Q01DX005 (ip), vehicle: Klucel (hydroxypropylcellulose) (HPC) 95 % of control

CC(=O)Oc1cc2c(c3ccccc13)OC(=O)CCCCCCCCCCC2=O
inactive: dose: 100.0 mg/kg/injection, schedule: Q04DX002 (ip), vehicle: Klucel (hydroxypropylcellulose) (HPC) 93 % of control | dose: 200.0 mg/kg/injection, schedule: Q04DX002 (ip), vehicle: Klucel (hydroxypropylcellulose) (HPC) 118 % of control | dose: 400.0 mg/kg/injection, schedule: Q04DX002 (ip), vehicle: Klucel (hydroxypropylcellulose) (HPC) 107 % of control

CCCCCCCC(=O)O[C@H]1[C@H]2[C@@H](CC1(C)C)C(=O)[C@]13O[C@H]1C(=O)[C@]1(CO1)[C@]23C
inactive: dose: 2.2 mg/kg/injection, schedule: Q01DX009 (ip), vehicle: saline with Tween-80 118 % of control | dose: 5.0 mg/kg/injection, schedule: Q01DX009 (ip), vehicle: saline with Tween-80 104 % of control and 122 % of control | dose: 7.5 mg/kg/injection, schedule: Q01DX009 (ip), vehicle: saline with Tween-80 118 % of control | dose: 10.0 mg/kg/injection, schedule: Q01DX009 (ip), vehicle: saline with Tween-80 95 % of control | dose: 10.0 mg/kg/injection, schedule: Q01DX009 (ip), vehicle: saline 105 % of control

COc1ccc(CSC(=S)Nc2cc(Cl)c(Cl)cc2Cl)cc1
inactive: dose: 12.5 mg/kg/injection, schedule: Q01DX009 (ip), vehicle: saline 88 % of control | dose: 25.0 mg/kg/injection, schedule: Q01DX009 (ip), vehicle: saline 97 % of control | [17] 99 % of control | [18] 93 % of control | [19] 103 % of control

OCC1OC(O)C2OCCOCCOC3C(O)C(CO)OC(O)C3OCCOCCOC2C1O (centres undefined)
inactive: [12] 101 % of control | [13] 95 % of control | [14] 97 % of control

O=NNc1nc2ncccc2cc1-c1ccccc1Cl
inactive: dose: 3.12 mg/kg/injection, schedule: Q01DX009 (ip), vehicle: water 110 % of control and 111 % of control and 124 % of control | dose: 6.25 mg/kg/injection, schedule: Q01DX009 (ip), vehicle: water 111 % of control | dose: 12.5 mg/kg/injection, schedule: Q01DX009 (ip), vehicle: water 108 % of control and 113 % of control | dose: 25.0 mg/kg/injection, schedule: Q01DX009 (ip), vehicle: water 94 % of control and 95 % of control

CSCCn1ccnc1[N+](=O)[O-]
inactive: dose: 12.5 mg/kg/injection, schedule: Q01DX009 (ip), vehicle: distilled water + Tween-80 100 % of control | dose: 25.0 mg/kg/injection, schedule: Q01DX009 (ip), vehicle: distilled water + Tween-80 96 % of control | dose: 50.0 mg/kg/injection, schedule: Q01DX009 (ip), vehicle: distilled water + Tween-80 100 % of control | dose: 100.0 mg/kg/injection, schedule: Q01DX009 (ip), vehicle: distilled water + Tween-80 101 % of control | dose: 200.0 mg/kg/injection, schedule: Q01DX009 (ip), vehicle: distilled water + Tween-80 108 % of control

CN1C(=O)Nc2ccc(Cl)cc2C1(O)c1ccccc1 (centres undefined)
inactive: dose: 25.0 mg/kg/injection, schedule: Q01DX009 (ip), vehicle: saline with Tween-80 90 % of control | [7] 86 % of control | [8] 92 % of control | [9] 91 % of control

O=C(Cc1nc2ccc([N+](=O)[O-])cc2nc1CC(=O)c1ccccc1)c1ccccc1
inactive: [1] 110 % of control | [2] 103 % of control | [3] 100 % of control

Cc1ccc(N=C2C(=O)Nc3ccccc32)cc1
inactive: dose: 50.0 mg/kg/injection, schedule: Q04DX002 (ip), vehicle: saline with Tween-80 108 % of control | [10] 105 % of control | [11] 104 % of control
